Structures can show the parent of a compound that is named as a salt. Where two headings read alike, the source gives them in different places. One block for each compound: values may come before it.
Assays:
[1] = as mentioned in U.S. Pat. No. 6,518,284 B2 and EP1002794; cited from earlier work
hygroscopicity = type: physicochemical
social interaction time = settings: rats, 14 days, 30 mg kg(−1) day(−1), p. o.; cited from earlier work
5-HTP-induced syndrome = settings: mice, orally administered, acute; cited from earlier work
[2] = tested on: apomorphine-induced hypothermia; settings: mice, orally administered, acute; cited from earlier work
[3] = tested on: immobility in the forced swimming test; settings: mice, 30 mg/kg, p.o.; cited from earlier work
[4] = tested on: dorsal raphe serotonergic neurones; settings: in vivo; cited from earlier work
[5] = tested on: immobility in the tail suspension test; settings: mice, orally administered, acute; cited from earlier work
[6] = tested on: hyperactivity induced by olfactory bulbectomy; settings: rats, chronic administration 14 days, 30 mg kg(−1) day(−1), p. o.; cited from earlier work
[7] = tested on: immobility in the forced swimming test; settings: rats, 30 mg/kg, p.o.; cited from earlier work
[8] = studies of stability under forced conditions; type: physicochemical
Description: Additionally, the compound of formula I has shown excellent stability properties. The compound of formula I has remained stable for at least 6 months in studies of stability under forced conditions at 50 and 60° C., as well as at 40° C. and 75% humidity. This represents more than 2 years of stability under normal conditions.

SMILES: Fc1cccc(O[C@H](c2ccccc2)C2CCNCC2)c1 (as salt: fumaric acid salt) [(S)-4-[(3-fluorophenoxy)phenylmethyl]piperidine]
melting point: 105 to 108 °C

SMILES: Fc1cccc(OC(c2ccccc2)C2CCNCC2)c1 (racemic) [4-[(3-fluorophenoxy)phenylmethyl]piperidine]
solubility in water [1]: insoluble in water

SMILES: Cl.Fc1cccc(O[C@H](c2ccccc2)C2CCNCC2)c1 [(S)-4-[(3-fluorophenoxy)phenylmethyl]piperidine hydrochloric acid salt]
melting point: 55 to 60 °C
hygroscopicity (hygroscopicity): hygroscopic

SMILES: Fc1cccc(O[C@H](c2ccccc2)C2CCNCC2)c1.O=S(=O)(O)O [(S)-4-[(3-fluorophenoxy)phenylmethyl]piperidine sulphuric acid salt]
hygroscopicity (hygroscopicity): hygroscopic

SMILES: Fc1cccc(O[C@H](c2ccccc2)C2CCNCC2)c1 [(S)-4-[(3-fluorophenoxy)phenylmethyl]piperidine]
social interaction time (social interaction time): significantly increases
minimal effective dose (MED), potentiation of 5-HTP-induced syndrome (5-HTP-induced syndrome): 10 mg/kg
ED50, antagonism of hypothermia induced by a high dose of apomorphine [2]: 2 mg/kg
immobility in the forced swimming test [3]: decreases the immobility
ED50, decrease of electrical activity of dorsal raphe serotonergic neurones [4]: 0.5303 mg/kg
MED, reduction of immobility in the tail suspension test [5]: 10 mg/kg
hyperactivity induced by olfactory bulbectomy [6]: attenuates the hyperactivity
immobility in the forced swimming test [7]: decreases the immobility

hygroscopicity (hygroscopicity): not hygroscopic
time remained stable under forced conditions ([8]; 40° C. and 75% humidity): at least 6 months
time remained stable under forced conditions ([8]; 50° C.): at least 6 months
time remained stable under forced conditions ([8]; 60° C.): at least 6 months
stability under normal conditions ([8]; normal conditions, extrapolated from forced conditions): more than 2 years
SMILES: CS(=O)(=O)O.Fc1cccc(OC(c2ccccc2)C2CCNCC2)c1 (stereo not drawn) [compound of formula I, 4-[(3-fluorophenoxy)phenylmethyl]piperidine methanesulfonic acid salt]
